The record followed here is ChEMBL document CHEMBL3808304, “Design, Synthesis, and Biological Evaluation of Indoline and Indole Derivatives as Potent and Selective α1A-Adrenoceptor Antagonists” (J Med Chem, 2016).

Assay type in all cases: ADME, organism-based
Series [1] in a line: Oral bioavailability in rat at 20 mg/kg. The settings on record: in vivo.
Series [2] can be described thus: MRT in rat at 10 mg/kg, iv. As to conditions: in vivo.
Series [3] is described as follows: MRT in rat at 20 mg/kg, po. The settings on record: in vivo.
Series [4] can be described thus: Apparent clearance in rat at 10 mg/kg, iv. The settings on record: in vivo, read-out: CL(app) (converted).
Series [5] can be described thus: Half life in rat at 10 mg/kg, iv. As to conditions: in vivo.
Series [6] can be described thus: Tmax in rat at 10 mg/kg, iv. The settings on record: in vivo.
Series [7] can be described thus: AUC (0 to infinity) in rat at 10 mg/kg, iv. Details: dose 10 mg/kg, time infinity, route intravenous. The settings on record: in vivo.
Series [8] can be described thus: Cmax in rat at 10 mg/kg, iv. Also on record: dose 10 mg/kg, route intravenous. The settings on record: in vivo.
The nature of series [9]: Half life in rat at 20 mg/kg, po. The settings on record: in vivo.
Series [10] is described as follows: Cmax in rat at 20 mg/kg, po. Details: dose 20 mg/kg, route oral. The settings on record: in vivo.
Series [11] can be described thus: Tmax in rat at 20 mg/kg, po. As to conditions: in vivo.
Series [12] in a line: AUC (0 to infinity) in rat at 20 mg/kg, po. Also on record: dose 20 mg/kg, route oral, time infinity. The settings on record: in vivo.

Consider `Cc1ccc(OCC(F)(F)F)c(OCCN[C@H](C)Cc2cc(C(N)=O)c3c(ccn3CCCO)c2)c1`, for which the bioavailability in [1] is 7%. Moreover, the results for the MRT in series [2] and in series [3] were 2.94 h and 3.54 h, respectively. In [4], the clearance is 37.9 mL/min/kg. Also, the half-life in series [5] is 66 min; in series [9], 73.2 min. Moreover, the Tmax in series [6] amounted to 4.98 min; in [11], 0.5 h. Further, the AUC(0-inf) in [7] is 4400 ng·h/mL; in series [12], 613 ng·h/mL. The Cmax was found to be 2430 ng/mL in [8] and 109 ng/mL in [10].

In turn, `C[C@H](Cc1cc2c(c(C(N)=O)c1)N(CCCO)CC2)NCCOc1cc(Cl)ccc1OCC(F)(F)F` registered a bioavailability in series [1] of 24.3%. Also, the MRT was found to be 2.34 h in [2] and 6.22 h in series [3]. Moreover, in series [4], the clearance is 47.5 mL/min/kg. In addition, the half-life in series [5] was 97.8 min; in series [9], 280 min. Besides, the Tmax in series [6] worked out at 4.98 min; in series [11], 4 h. In addition, the AUC(0-inf) was 3510 ng·h/mL in series [7] and 1700 ng·h/mL in [12]. For the same compound, the Cmax in series [8] is 3000 ng/mL; in series [10], 152 ng/mL.

Usually bioavailability stands for the share of a dose that reaches the circulation, judged against a reference dose that is usually intravenous. A low value points to little systemic uptake. One may read the MRT as the average time that molecules of a dose stay in the body. As usually defined, the half-life is how long it takes for the measured level to halve. A high value points to slow loss. Broadly, the Tmax is the time at which the peak concentration occurs. For orientation: AUC(0-inf) means the area under the concentration-time curve extrapolated to infinity. A low value points to low exposure. By Cmax is commonly meant the maximum level reached in the sampled fluid or tissue.
